# Read-outs that look alike come from different tables or passages of the source.
# Columns and labels:
# [1] = HPTS/DPX transport assay in zwitterionic EYPC vesicles; type: in vitro ADME; design: key to Et: Et = Ymax × (pEC50/ft); pEC50 = −log EC50
# Procedure: The well-established HPTS/DPX assay, which uses 8-hydroxypyrene-1,3,6-trisulfonate (HPTS) and p-xylene-bis-pyridinium (DPX), was implemented to monitor peptide-transport activation (Fig. 2a). […] A surfactant (Triton X-100) was added at the end of the experiment (t = 600 s) to release all vesicle content and normalize the fluorescence intensity data.
# Fig. 2 Carrier activity obtained from the HPTS/DPX assay. a, Schematic representation of the transport of otherwise impermeable analytes facilitated by superchaotropic cluster anions with encapsulated HPTS/DPX probe/quencher pair used for signalling. […] Concentrations of carrier and cargo, when fixed, were 40 and 20 µM, respectively, unless explicitly stated. Source data
# A thin lipid film was prepared by evaporating a lipid solution with a stream of nitrogen and then dried in vacuo overnight.
# Fluorescence intensities were normalized to fractional emission as I(t) = (It − I0)/(I∞ − I0), where I0 = It before cluster addition and I∞ = It after lysis.
# In the activator measurements, in which different activators were tested with the same cargo, the activator efficiency (Ea) is determined from their ability to activate the transport of an impermeable cargo molecule and is characterized by Ymax, its maximal activity, and EC50, the effective activator concentration. A potent activator reaches high Ymax at low EC50. To reflect both factors, the activator efficiency is defined as Ea = Ymax × (pEC50/fa), where pEC50 is the negative logarithm of EC50.
# In the transport measurements, in which different types of cargo were tested with the same activator, the transport efficiency (Et) reports on the sensitivity of the cargo for being transported and is described by Ymax, the maximal activity, and EC50, the effective cargo concentration. An easily accessible cargo reaches high Ymax at low EC50. The transport efficiency is defined as a composition of both parameters according to Et = Ymax × (pEC50/ft), where pEC50 is the negative logarithm of EC50.
# Extended Data Fig. 3 Transport activity. a, Transport activity, Y, in EYPC⊃HPTS/DPX vesicles as a function of cluster concentration at constant cargo concentration (WR7, 20 µM). b, Transport activity, Y, for B12Br12^2− (40 µM) in EYPC⊃HPTS/DPX vesicles as a function of the concentration of different cargo types; red lines correspond to the resulting fit with the Hill equation. Source data
# [2] = tested on: Escherichia coli Top10 strain; test: Kanamycin A delivery in E. coli (OD570 growth); type: cell-based; conditions: for mean_norm_OD570: LB, 37 °C, 18 h, mean of triplicate
# Procedure: As a proof-of-principle, we investigated its potential to reduce the minimum inhibitory concentration of kanamycin A, an aminoglycoside antibiotic. Aminoglycosides function by binding to the bacterial 30S ribosomal subunit; consequently, effective passage through the cell wall and plasma membrane is essential for aminoglycosides to reach their intracellular targets. […]
# A preculture of E. coli Top10 cells was incubated overnight in LB medium with 50 µg ml^−1 streptomycin sulfate. […] After 18 h, the optical density at 570 nm, as an indicator of bacterial growth, was measured with a Tecan Infinite F200Pro microplate reader. Data were normalized for each concentration of B12Br12^2− relative to the control condition without antibiotic.
# Solid points indicate mean ± s.d. of three technical replicates. […] Cross-bars indicate mean ± s.d. of three independent experiments (two with technical triplicates, one with technical duplicates); values obtained in each experiment are represented by different shapes. c, Viability of HeLa cells after incubation with different doses of MMAF in the presence of 0, 5 and 10 μM B12Br12^2−. Solid points indicate mean ± s.d. of three technical replicates. d, Corresponding IC50 values of MMAF. […] Source data
# HeLa cells [3] = test: Confocal imaging of TAMRA-R8 / TAMRA-D-R8 / TAMRA uptake in living cells; conditions: HeLa, 1, 10 or 50 µM TAMRA, 10 µM B12Br12^2− in HKR, 1 h
# Text: (§1) Representative images of two biological replicates. […] Scale bars, 50 μm.
# Representative images of two biological replicates. […] Source data
# (1 picture or pasted object on this page, not shown here)
# HeLa cells [4] = test: Phalloidin-TRITC delivery, confocal imaging of F-actin staining; type: cell-based; conditions: living HeLa cells, HKR buffer, 3 h, 500 nM cargo concentration
# Procedure: as §1
# Cells were incubated with 7 µM phalloidin-TRITC (red) in the absence (left) and presence of 50 µM ^AcR8 (middle) or 50 µM of B12Br12^2− cluster (right) in HKR buffer for 3 h, subsequently stained with Hoechst (blue), washed with DMEM without phenol red, and imaged by confocal fluorescence microscopy; bright-field images in insets. Micrographs from each cell line were processed independently, experiments were performed twice. e, MTT viability assay of the corresponding cell lines (HeLa, GT1-7, ARPE-19 and A549, from left to right) at different concentrations (0, 25, 75, 250, and 500 µM) of B12Br12^2− (black) or ^AcR8 (red); data are mean ± s.d. of five measurements. f, Confocal images of HeLa cells after incubation with 500 nM phalloidin-TRITC and different concentrations B12Br12^2−; the images correspond to those of Fig. 4 in the main text, but are shown with increased brightness to facilitate observation of the actin filaments. Representative images of two biological replicates. All scale bars are […], except for panel f (50 µm). Source data
# [5] = gold standard in the field; cited from earlier work
# Text: U-tube transport experiments, across a bulk chloroform layer, unambiguously confirmed that the brominated cluster served as a non-covalent carrier across a hydrophobic bulk barrier (Extended Data Fig. 2a, b). To quantitatively characterize the transport efficiency of the new cluster carriers, the normalized fluorescence responses in the vesicle experiments (Fig. 2b) were plotted against cluster concentration to produce dose–response curves (Fig. 2c and Extended Data Fig. 3a). We extracted, by Hill analysis, the salient parameters: the maximal activity (Ymax), the concentration needed to achiev ...
compound,measurement,setting,value
kanamycin A,Et transport efficiency,"[1]; Et = Ymax × (pEC50/ft), ft = 19.8 so that WR7 equals 10.0, B12Br12^2− (40 μM) carrier, 5% error (SD) unless stated",1.7 ± 0.2
same,Et,"[1]; Fig.2 d, per analyte (cargo)",1.7
same,"Ymax (%) maximal activity, transport of cargo","[1]; cargo concentration varied, B12Br12^2− (40 μM) as common carrier, EYPC⊃HPTS/DPX vesicles, 13 µM lipid, 10 mM Tris, 107 mM NaCl, pH 7.4, HPTS fluorescence, Hill analysis, 10% error (SD) unless stated, n.t. = no detectable transport",54 ± 6%
same,EC50,"[1]; read-out: EC50 (μM) effective cargo concentration to reach 50% of Ymax, cargo concentration varied, B12Br12^2− (40 μM) as common carrier, EYPC⊃HPTS/DPX vesicles, pH 7.4, Hill analysis, 10% error (SD) unless stated, n.t. = no detectable transport",235 ± 70 µM
same,mean_norm_OD570,"[2]; Kanamycin 3 µg/mL, B12Br12 0, normalised to no-antibiotic control",68.2744
same,mean_norm_OD570,"[2]; Kanamycin 3 µg/mL, B12Br12 500 mM, normalised to no-antibiotic control at same B12Br12",9.048
same,mean_norm_OD570,"[2]; Kanamycin 3 µg/mL, B12Br12 750 mM, normalised to no-antibiotic control at same B12Br12",0.7906
same,mean_norm_OD570,"[2]; Kanamycin 3 µg/mL, B12Br12 1000 mM, normalised to no-antibiotic control at same B12Br12",0.4633
same,mean_norm_OD570,"[2]; Kanamycin 2.5 mg/mL, B12Br12 0 (so in the source), normalised to no-antibiotic control",70.6541
same,mean_norm_OD570,"[2]; Kanamycin 2.5 mg/mL, B12Br12 500 mM (so in the source), normalised to no-antibiotic control at same B12Br12",24.7877
same,mean_norm_OD570,"[2]; Kanamycin 2.5 mg/mL, B12Br12 750 mM (so in the source), normalised to no-antibiotic control at same B12Br12",9.686
same,mean_norm_OD570,"[2]; Kanamycin 2.5 mg/mL, B12Br12 1000 mM (so in the source), normalised to no-antibiotic control at same B12Br12",14.0089
same,mean_norm_OD570,"[2]; Kanamycin 3.5 mg/mL, B12Br12 0 (so in the source), normalised to no-antibiotic control",58.481
same,mean_norm_OD570,"[2]; Kanamycin 3.5 mg/mL, B12Br12 500 mM (so in the source), normalised to no-antibiotic control at same B12Br12",0.383
same,mean_norm_OD570,"[2]; Kanamycin 3.5 mg/mL, B12Br12 750 mM (so in the source), normalised to no-antibiotic control at same B12Br12",0.005219
same,mean_norm_OD570,"[2]; Kanamycin 3.5 mg/mL, B12Br12 1000 mM (so in the source), normalised to no-antibiotic control at same B12Br12",0.103
same,"E. coli viability, absence of cluster","[2]; kanamycin A 3.5 µg ml^−1, no B12Br12^2−",60%
same,"E. coli viability, presence of the cluster carrier",[2]; kanamycin A 3.5 µg ml^−1 with B12Br12^2−,< 1%
TAMRA [reference compound],Transport of non-conjugated dye by B12Br12^2−,HeLa cells [3],not carried
Phalloidin-TRITC,F-actin staining after B12Br12^2−-triggered membrane passage,HeLa cells [4],excellent staining of the F-actin target
"O=C(O)CCCc1ccc2ccc3cccc4ccc1c2c34 [Pyrenebutyrate (1), pyrenebutyrate, reference compound]",Ea activator efficiency,[5],≈ 5
same,Ea activator efficiency,"[1]; Ea = Ymax × (pEC50/fa), fa = 20.6, WR7 (20 μM) cargo, 10% error (SD)",4.9
same,Activation of oligolysine (WK7) membrane transport,"[1]; WK7 cargo, HPTS/DPX assay",fails to trigger any signal
same,"Ymax (%) maximal activity, carrier activity","[1]; carrier concentration varied, WR7 (20 μM) as common cargo, EYPC⊃HPTS/DPX vesicles, 13 µM lipid, 10 mM Tris, 107 mM NaCl, pH 7.4, HPTS fluorescence, Hill analysis, 10% error (SD) unless stated, n.a. = no detectable activity, d.l. = dye leakage, no determination possible",100%
same,Activity as activator for the newly introduced targets,"[1]; membrane-impermeable analytes (100 µM), HPTS/DPX assay",no activity
same,EC50,"[1]; read-out: EC50 (μM) effective carrier concentration to reach 50% of Ymax, carrier concentration varied, WR7 (20 μM) as common cargo, EYPC⊃HPTS/DPX vesicles, pH 7.4, Hill analysis, 10% error (SD) unless stated, n.a. = no detectable activity, d.l. = dye leakage, no determination possible",103 µM

# Reference: paper PMC8942850, “Boron clusters as broadband membrane carriers” (Nature, 2022)
